≈ marks a conversion by molar mass, not a printed value.
Legend:
Escherichia coli [1] = assay: Antibacterial activity against Escherichia coli; assay type: functional
Staphylococcus aureus = assay: Antibacterial activity against Staphylococcus aureus; assay type: functional
Candida albicans = assay: Antifungal activity against Candida albicans; assay type: functional
Enterococcus faecalis = assay: Antibacterial activity against Enterococcus faecalis; assay type: functional
Klebsiella pneumoniae = assay: Antibacterial activity against Klebsiella pneumoniae; assay type: functional
Aspergillus fumigatus = assay: Antifungal activity against Aspergillus fumigatus; assay type: functional
[2] = tested on: Mycobacterium tuberculosis; assay: Antimycobacterial activity against Mycobacterium tuberculosis H37Rv; assay type: functional
Pyricularia grisea [3] = assay: Antifungal activity against Magnaporthe grisea GD08-T19 at 50 ug/ml; assay type: functional; conditions: dose 50 µg/ml
Pyricularia grisea [4] = assay: Antifungal activity against Magnaporthe grisea GD08-T19 assessed as diameter zone of inhibition; assay type: functional
[5] = Displacement of [3H]AMPA from NMDA receptor (unknown origin); assay type: protein-complex assay, Homo sapiens
[6] = molecular target: Glutamate [NMDA] receptor; assay: Displacement of [3H]MDL from NMDA receptor (unknown origin); assay type: protein-complex assay, Homo sapiens
Papillary muscle = assay: Positive inotropic activity in ferret papillary muscle assessed as contractile force measured as CFC20; assay type: functional, Mustela putorius furo
Mesenteric vein = assay: Vasorelaxant activity in dog mesenteric veins; assay type: functional, tissue-based; conditions: Canis lupus familiaris
Coronary artery = assay: Vasorelaxant activity in dog coronary arteries; assay type: functional, tissue-based; conditions: Canis lupus familiaris
[7] = molecular target: 3',5'-cyclic phosphodiesterase; assay: Inhibition of cAMP-specific 3',5'-cyclic phosphodiesterase (unknown origin); assay type: protein assay, Homo sapiens
[8] = Inhibition of cGMP-dependent 3',5'-cyclic phosphodiesterase (unknown origin); set-up: species or system Homo sapiens
[9] = molecular target: T1, Vascular endothelial growth factor receptor 2 (Homo sapiens, UniProt P35968); assay: Inhibition of VEGFR2 (unknown origin) at 1 uM relative to control
T1 sequence (P35968 whole entry): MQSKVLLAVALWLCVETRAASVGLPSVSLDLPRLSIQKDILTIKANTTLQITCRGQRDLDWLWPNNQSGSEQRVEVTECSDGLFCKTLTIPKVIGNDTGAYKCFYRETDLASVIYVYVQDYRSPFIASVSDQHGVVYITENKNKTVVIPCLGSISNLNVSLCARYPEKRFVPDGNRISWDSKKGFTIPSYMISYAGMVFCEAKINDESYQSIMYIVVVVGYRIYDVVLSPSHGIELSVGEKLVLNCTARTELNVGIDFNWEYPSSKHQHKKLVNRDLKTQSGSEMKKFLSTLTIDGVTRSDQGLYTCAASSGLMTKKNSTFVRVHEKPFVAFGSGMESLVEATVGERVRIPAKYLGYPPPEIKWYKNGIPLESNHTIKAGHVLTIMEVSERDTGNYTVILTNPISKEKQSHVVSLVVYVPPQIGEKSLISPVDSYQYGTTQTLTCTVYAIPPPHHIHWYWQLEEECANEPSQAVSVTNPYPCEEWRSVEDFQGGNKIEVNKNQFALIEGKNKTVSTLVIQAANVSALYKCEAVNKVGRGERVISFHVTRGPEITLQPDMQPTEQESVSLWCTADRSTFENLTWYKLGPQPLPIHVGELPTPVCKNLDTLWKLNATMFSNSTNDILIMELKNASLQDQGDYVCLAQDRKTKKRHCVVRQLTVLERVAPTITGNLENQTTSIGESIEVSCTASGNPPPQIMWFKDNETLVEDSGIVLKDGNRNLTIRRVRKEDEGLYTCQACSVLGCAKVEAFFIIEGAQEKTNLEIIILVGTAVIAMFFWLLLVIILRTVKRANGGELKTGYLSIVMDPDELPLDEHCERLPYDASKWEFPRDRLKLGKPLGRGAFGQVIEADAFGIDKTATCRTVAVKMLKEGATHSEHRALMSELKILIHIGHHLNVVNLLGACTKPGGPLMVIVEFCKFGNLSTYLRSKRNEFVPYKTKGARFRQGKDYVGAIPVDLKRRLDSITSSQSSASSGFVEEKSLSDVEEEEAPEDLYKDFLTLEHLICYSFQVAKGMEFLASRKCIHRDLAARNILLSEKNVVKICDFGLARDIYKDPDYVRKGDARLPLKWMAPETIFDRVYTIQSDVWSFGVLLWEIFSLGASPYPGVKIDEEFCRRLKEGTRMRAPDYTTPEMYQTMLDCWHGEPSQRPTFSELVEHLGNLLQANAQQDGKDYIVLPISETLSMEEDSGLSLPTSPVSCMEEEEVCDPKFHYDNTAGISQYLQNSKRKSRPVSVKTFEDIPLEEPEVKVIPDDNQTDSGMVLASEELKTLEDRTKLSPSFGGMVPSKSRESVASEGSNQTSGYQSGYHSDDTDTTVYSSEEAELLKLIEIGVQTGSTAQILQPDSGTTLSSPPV

MCF7 = assay: Antiproliferative activity against human MCF7 cells; assay type: functional, cell-based
[10] = Antiproliferative activity against human 3AO cells; assay type: functional, cell-based
PC-3 = assay: Antiproliferative activity against human PC-3 cells; assay type: functional, cell-based
K562 = assay: Antiproliferative activity against human K562 cells; assay type: functional, cell-based
HeLa = assay: Antiproliferative activity against human HeLa cells; assay type: functional, cell-based
BEAS-2B = assay: Antiproliferative activity against human BEAS-2B cells; assay type: functional, cell-based
HepG2 = assay: Antiproliferative activity against human HepG2 cells; assay type: functional, cell-based
[11] = molecular target: Epidermal growth factor receptor (Homo sapiens, UniProt P00533); assay: Inhibition of wild-type EGFR (unknown origin)
Chain of Epidermal growth factor receptor (Homo sapiens, UniProt P00533) (P00533 whole entry): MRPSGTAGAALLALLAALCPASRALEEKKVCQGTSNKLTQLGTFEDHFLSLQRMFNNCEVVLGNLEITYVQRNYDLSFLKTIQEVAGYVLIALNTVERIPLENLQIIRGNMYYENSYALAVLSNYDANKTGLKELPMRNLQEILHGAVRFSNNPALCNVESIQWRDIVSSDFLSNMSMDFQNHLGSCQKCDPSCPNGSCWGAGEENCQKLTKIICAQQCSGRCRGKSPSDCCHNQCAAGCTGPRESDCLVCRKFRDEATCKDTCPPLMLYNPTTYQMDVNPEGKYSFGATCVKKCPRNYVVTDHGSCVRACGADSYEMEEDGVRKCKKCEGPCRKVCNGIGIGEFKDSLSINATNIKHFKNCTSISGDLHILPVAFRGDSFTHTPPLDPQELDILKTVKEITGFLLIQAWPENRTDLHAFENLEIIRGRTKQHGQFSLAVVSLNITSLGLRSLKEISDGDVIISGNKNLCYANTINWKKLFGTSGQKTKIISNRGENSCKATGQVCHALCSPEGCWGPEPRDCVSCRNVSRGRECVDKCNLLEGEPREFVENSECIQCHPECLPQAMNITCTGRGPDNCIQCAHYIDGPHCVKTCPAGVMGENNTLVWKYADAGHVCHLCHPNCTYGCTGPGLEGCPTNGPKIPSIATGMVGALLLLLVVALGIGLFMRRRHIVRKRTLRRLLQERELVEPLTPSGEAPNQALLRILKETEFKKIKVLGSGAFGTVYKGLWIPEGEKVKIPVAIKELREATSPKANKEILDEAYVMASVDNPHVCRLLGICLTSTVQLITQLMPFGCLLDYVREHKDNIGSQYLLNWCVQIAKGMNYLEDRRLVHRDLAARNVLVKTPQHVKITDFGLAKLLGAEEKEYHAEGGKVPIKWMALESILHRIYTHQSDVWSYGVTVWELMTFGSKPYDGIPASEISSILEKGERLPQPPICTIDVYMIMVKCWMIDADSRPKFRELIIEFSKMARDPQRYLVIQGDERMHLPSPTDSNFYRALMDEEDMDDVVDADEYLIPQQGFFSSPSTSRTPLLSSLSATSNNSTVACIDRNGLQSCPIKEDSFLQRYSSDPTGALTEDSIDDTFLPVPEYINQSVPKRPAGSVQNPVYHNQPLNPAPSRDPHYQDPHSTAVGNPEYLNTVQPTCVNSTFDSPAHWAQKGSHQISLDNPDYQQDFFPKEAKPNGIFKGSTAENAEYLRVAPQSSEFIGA

[12] = molecular target: Epidermal growth factor receptor (Homo sapiens, UniProt P00533, L858R); assay: Inhibition of EGFR L858R mutant (unknown origin)
Chain of Epidermal growth factor receptor (Homo sapiens, UniProt P00533, L858R) (P00533 25-1210 L858R limits assumed): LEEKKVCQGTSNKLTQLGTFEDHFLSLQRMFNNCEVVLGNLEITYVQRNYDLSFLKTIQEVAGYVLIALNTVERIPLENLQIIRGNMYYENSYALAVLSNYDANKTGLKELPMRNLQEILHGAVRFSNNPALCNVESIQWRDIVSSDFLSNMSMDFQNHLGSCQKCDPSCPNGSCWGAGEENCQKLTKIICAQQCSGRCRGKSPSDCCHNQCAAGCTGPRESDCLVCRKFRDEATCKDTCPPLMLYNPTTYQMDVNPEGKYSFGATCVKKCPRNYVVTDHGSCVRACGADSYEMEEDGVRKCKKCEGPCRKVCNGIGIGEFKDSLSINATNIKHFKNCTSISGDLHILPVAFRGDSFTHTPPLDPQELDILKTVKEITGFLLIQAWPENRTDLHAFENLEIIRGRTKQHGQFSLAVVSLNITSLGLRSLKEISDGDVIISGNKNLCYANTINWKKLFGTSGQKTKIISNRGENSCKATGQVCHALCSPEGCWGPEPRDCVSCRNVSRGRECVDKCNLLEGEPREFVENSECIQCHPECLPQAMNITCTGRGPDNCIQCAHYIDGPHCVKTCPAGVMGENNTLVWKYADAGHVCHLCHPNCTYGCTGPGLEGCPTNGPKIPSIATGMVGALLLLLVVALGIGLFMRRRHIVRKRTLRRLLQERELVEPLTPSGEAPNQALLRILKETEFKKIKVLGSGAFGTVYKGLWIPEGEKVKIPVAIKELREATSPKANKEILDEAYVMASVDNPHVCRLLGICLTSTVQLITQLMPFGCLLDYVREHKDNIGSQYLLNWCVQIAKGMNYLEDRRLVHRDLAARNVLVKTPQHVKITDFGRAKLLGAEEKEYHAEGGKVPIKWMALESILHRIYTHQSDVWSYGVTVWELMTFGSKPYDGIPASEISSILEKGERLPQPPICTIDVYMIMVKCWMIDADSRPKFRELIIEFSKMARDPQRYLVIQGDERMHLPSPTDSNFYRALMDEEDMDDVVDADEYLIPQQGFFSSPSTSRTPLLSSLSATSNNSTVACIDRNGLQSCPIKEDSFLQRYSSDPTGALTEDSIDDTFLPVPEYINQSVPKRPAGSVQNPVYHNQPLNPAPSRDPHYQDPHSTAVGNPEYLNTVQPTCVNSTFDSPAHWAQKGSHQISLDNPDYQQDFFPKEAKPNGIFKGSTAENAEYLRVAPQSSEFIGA

HCT-116 = assay: Antiproliferative activity against human HCT-116 cells; assay type: functional, cell-based
WI-38 = assay: Antiproliferative activity against human WI-38 cells; assay type: functional, cell-based
[13] = Antioxidant activity assessed as DPPH radical scavenging activity; assay type: functional
[14] = Antioxidant activity assessed as H2O2 radical scavenging activity; assay type: functional
[15] = Antioxidant activity assessed as NO radical scavenging activity; assay type: functional
Pseudomonas aeruginosa = assay: Antibacterial activity against Pseudomonas aeruginosa; assay type: functional
Escherichia coli [16] = assay: Antibacterial activity against Escherichia coli W3110; assay type: functional
[17] = Inhibition of Escherichia coli topoisomerase 4
Streptococcus pneumoniae = assay: Antibacterial activity against Streptococcus pneumoniae; assay type: functional
A549 = assay: Antiproliferative activity against human A549 cells; assay type: functional, cell-based
LS174T = assay: Antiproliferative activity against human LS174T cells; assay type: functional, cell-based
MRC5 = assay: Antiproliferative activity against human MRC5 cells; assay type: functional, cell-based
[18] = molecular target: Bromodomain-containing protein 4 (Homo sapiens, UniProt O60885); assay: Inhibition of BRD4 (unknown origin) using histone-H4 as substrate incubated for 15 mins and measured after 1 hr by AlphaScreen assay
[19] = molecular target: T1, Vascular endothelial growth factor receptor 2

Compound: COc1ccc(/C(C)=N/NC(=O)Cn2c(=O)c(C)nc3ccccc32)cc1
- MIC (Escherichia coli [1]): 125 µg/mL (≈ 343 µM)
- MIC (Staphylococcus aureus): 62.5 µg/mL (≈ 172 µM)
- MIC (Candida albicans): 250 µg/mL (≈ 686 µM)
- MIC (Enterococcus faecalis): 131 µg/mL (≈ 360 µM)
- MIC (Klebsiella pneumoniae): 125 µg/mL (≈ 343 µM)
- MIC (Aspergillus fumigatus): 8.06 µg/mL (≈ 22.1 µM)
- MIC [2]: 25 µg/mL (≈ 68.6 µM)

Compound: Cn1c(=O)c(C(CCCOc2cc(=O)oc3ccccc23)CC(F)(F)F)nc2ccccc21 (configuration not stated)
- Activity (Pyricularia grisea [3]): 23%
- diameter of the inhibition zone (DIZ) (Pyricularia grisea [4]): 48 mm

Compound: O=C(NCc1cc(Br)cc2nc(O)c(O)nc12)c1cccs1
- IC50 [5]: 1.6 µM
- IC50 [6]: 0.01 µM

Compound: O=C(Cc1ccsc1)NCc1cc(Br)cc2nc(O)c(O)nc12
- IC50 [5]: 11.3 µM
- IC50 [6]: 0.01 µM

Compound: CCc1nc(C)c2c(O)nc3ccccc3n12
- Activity (Papillary muscle): 0.2 µM
- EC50 (Mesenteric vein): 0.8 µM
- EC50 (Coronary artery): 1.7 µM
- IC50 [7]: 2 µM
- IC50 [8]: 0.4 µM

Compound: C/C(=N\NC(=O)Cn1c(=O)c(C)nc2ccccc21)c1ccc(N)cc1
- MIC (Escherichia coli [1]): 125 µg/mL (≈ 358 µM)
- MIC (Staphylococcus aureus): 125 µg/mL (≈ 358 µM)
- MIC (Candida albicans): 16.1 µg/mL (≈ 46 µM)
- MIC (Enterococcus faecalis): 16.1 µg/mL (≈ 46 µM)
- MIC (Klebsiella pneumoniae): 125 µg/mL (≈ 358 µM)
- MIC (Aspergillus fumigatus): 1 µg/mL (≈ 2.86 µM)
- MIC [2]: 25 µg/mL (≈ 71.6 µM)

Compound: O=C(Cn1c(=O)c(/C=C/c2ccncc2)nc2ccccc21)Nc1ccc(F)cc1
- inhibition [9]: 6%
- IC50 (MCF7): 49 µM
- IC50 [10]: > 100 µM
- IC50 (PC-3): 59.9 µM
- IC50 (K562): > 100 µM
- IC50 (HeLa): > 100 µM
- IC50 (BEAS-2B): > 100 µM

Compound: CCc1ncc2c(O)nc3cccnc3n12
- Activity (Papillary muscle): 0.1 µM
- EC50 (Mesenteric vein): 0.5 µM
- EC50 (Coronary artery): 0.3 µM
- IC50 [7]: 1 µM
- IC50 [8]: 7 µM

Compound: COC(=O)CCc1nc2ccc(Br)cc2[nH]c1=O
- IC50 (MCF7): 17.9 µM
- IC50 (HepG2): 15.6 µM
- IC50 [11]: 0.957 µM
- IC50 [12]: 0.0754 µM
- IC50 (HCT-116): 13.8 µM
- IC50 (WI-38): 142 µM

Compound: CCc1nccn1-c1ncnc2c1nc(O)c1cnc(CC)n12
- Activity (Papillary muscle): >100 µM
- EC50 (Mesenteric vein): 23 µM
- EC50 (Coronary artery): 59 µM
- IC50 [7]: > 100 µM
- IC50 [8]: 14 µM

Compound: Cc1ccc(-n2cc(COc3ccc(/C=N/NC(=O)Cn4c(=O)c(C)nc5ccccc54)cc3)nn2)cc1
- IC50 [13]: 26.04 µg/mL (≈ 51.3 µM)
- IC50 [14]: 52.08 µg/mL (≈ 103 µM)
- IC50 [15]: 48.07 µg/mL (≈ 94.7 µM)

Compound: COC(=O)CCc1nc2ccc(Cl)cc2[nH]c1=O
- IC50 (MCF7): 23.3 µM
- IC50 (HepG2): 46.2 µM
- IC50 [11]: 1.34 µM
- IC50 [12]: 0.0828 µM
- IC50 (HCT-116): 31.6 µM
- IC50 (WI-38): 242 µM

Compound: COc1ccc2ncc(=O)n(CCN3CCC(NCc4cc5c(cn4)OCCO5)CC3)c2c1
- MIC (Pseudomonas aeruginosa): 4 µg/mL (≈ 8.86 µM)
- MIC (Staphylococcus aureus): 0.02 µg/mL (≈ 0.0443 µM)
- MIC (Escherichia coli [16]): 0.5 µg/mL (≈ 1.11 µM)
- IC50 [17]: 0.005 µM
- MIC (Streptococcus pneumoniae): 0.06 µg/mL (≈ 0.133 µM)

Compound: C=C(C)CCC(=O)/C=C1/Nc2ccccc2NC1=O
- IC50 (A549): 86.2 µM
- IC50 (HeLa): 25.1 µM
- IC50 (LS174T): 33.5 µM
- IC50 (MRC5): 174 µM

Compound: O=C(Cn1c(=O)c(/C=C/c2ccncc2)nc2ccccc21)Nc1ccc(Cl)c(Cl)c1
- inhibition [9]: 56%
- IC50 (MCF7): 47.6 µM
- IC50 [10]: > 100 µM
- IC50 (PC-3): > 100 µM
- IC50 (K562): > 100 µM
- IC50 (HeLa): > 100 µM
- IC50 (BEAS-2B): > 100 µM

Compound: C/C(=N\NC(=O)Cn1c(=O)c(C)nc2ccccc21)c1ccc(O)cc1
- MIC (Escherichia coli [1]): 125 µg/mL (≈ 357 µM)
- MIC (Staphylococcus aureus): 250 µg/mL (≈ 714 µM)
- MIC (Candida albicans): 4 µg/mL (≈ 11.4 µM)
- MIC (Enterococcus faecalis): 16.1 µg/mL (≈ 45.8 µM)
- MIC (Klebsiella pneumoniae): 125 µg/mL (≈ 357 µM)
- MIC (Aspergillus fumigatus): 4 µg/mL (≈ 11.4 µM)
- MIC [2]: 25 µg/mL (≈ 71.4 µM)

Compound: Cc1noc(C)c1-c1ccc2c(c1)C(Cc1ccccc1)NC(=O)N2C (configuration not stated)
- IC50 [18]: 0.032 µM

Compound: O=C(Cn1c(=O)c2nncn2c2ccccc21)Nc1ccc(C(=O)Nc2cc(Cl)ccc2Cl)cc1
- IC50 [19]: 0.0048 µM
- IC50 (MCF7): 10.3 µM
- IC50 (HepG2): 8.4 µM

Compound: NNC(=O)/C=C1/Nc2ccc(Br)cc2NC1=O
- IC50 (MCF7): 16.9 µM
- IC50 (HepG2): 18.6 µM
- IC50 [11]: 1.55 µM
- IC50 [12]: 0.0873 µM
- IC50 (HCT-116): 28.4 µM
- IC50 (WI-38): 227 µM

Compound: Cc1nc2ccccc2n(CC(=O)N/N=C/c2ccc(OCCn3cc(CN4CCCC4)nn3)cc2)c1=O
- IC50 [13]: 27.17 µg/mL (≈ 52.8 µM)
- IC50 [14]: 56.81 µg/mL (≈ 110 µM)
- IC50 [15]: 53.19 µg/mL (≈ 103 µM)

Compound: Oc1nc2cccnc2n2ccnc12
- Activity (Papillary muscle): 2.2 µM
- EC50 (Mesenteric vein): 10 µM
- EC50 (Coronary artery): 11 µM
- IC50 [7]: 44 µM
- IC50 [8]: 27 µM

Compound: Cn1c(=O)c(C(CCCNC(=O)c2ccc(OC(F)(F)F)cc2)CC(F)(F)F)nc2ccccc21 (configuration not stated)
- Activity (Pyricularia grisea [3]): 49%
- diameter of the inhibition zone (DIZ) (Pyricularia grisea [4]): 32 mm

Compound: O=C(NCc1cc(Br)cc2[nH]c(=O)c(=O)[nH]c12)c1ccsc1
- IC50 [5]: 2 µM
- IC50 [6]: 0.01 µM
